Data on nine compounds can be found in patent US20220211692A1, “Modulators of the Cystic Fibrosis Transmembrane Conductance Regulator Protein and Methods of Use” (AbbVie Global Enterprises Ltd., priority 2021, published 2022).

Where two headings read alike, the source gives them in different places.

In one assay the target is T1, F508delCFTR (Homo sapiens, UniProt P13569, DEL508-508).
T1 construct: expressed in transfected cells; host or cells: CFBE41o- human lung derived epithelial cell line, doxycycline-induced expression
Briefly: Cell Surface Expression-Horse Radish Peroxidase (CSE-HRP) assay in CFBE41o-F508delCFTR-HRP cells. In kind it is cell-based. The conditions noted are these: for EC50: CFBE41o-F508delCFTR-HRP cells, 18-24 hours at 33° C.; for Emax / Maximum % activity (with co-corrector): normalized to on-plate positive control; for Emax: read-out: Maximum % activity (without co-corrector). The protocol: A cellular assay for measuring the F508delCFTR cell surface expression after correction with test compounds either without or with a co-corrector (2 μM of 3-[(2R,4R)-4-({[1-(2,2-difluoro-1,3-benzodioxol-5-yl)cyclopropyl]carbonyl}amino)-7-methoxy-3,4-dihydro-2H-chromen-2-yl]benzoic acid), was developed in human lung derived epithelial cell line (CFBE41o-) (Veit G et al, (2012) Mol Biol Cell. 23(21): 4188-4202). The development was achieved by expressing the F508delCFTR mutation along with a horseradish peroxidase (HRP) in the fourth exofacial loop, and then measuring the HRP activity using luminescence readout from these cells, CFBE41o-F508delCFTR-HIRP, that were incubated overnight with the test corrector compounds, either without or with the co-corrector. For this primary assay, the CFBE41o-F508delCFTR-HRP cells were plated in 384-well plates (Greiner Bio-one; Cat 781080) at 4,000 cells/well along with 0.5 μg/mL doxycycline to induce the F508delCFTR-HRP expression and further incubated at 37° C., […] for 68-72 hours. The test compounds were then added either without or with a co-corrector at the required concentrations and further incubated for 18-24 hours at 33° C. The highest concentration tested was 20 μM or 30 μM (GI-1 to GIII-36) with an 8-point concentration response curve using a 3-fold dilution in both the test compound without or with the co-corrector. Three replicate plates were run to determine one EC50. All plates contained negative controls (dimethyl sulfoxide, DMSO) and positive control (2 μM or 3 μM (GI-1 to GIII-36) of 3-[(2R,4R)-4-({[1-(2,2-difluoro-1,3-benzodioxol-5-yl)cyclopropyl]carbonyl}amino)-7-methoxy-3,4-dihydro-2H-chromen-2-yl]benzoic acid) as well as on-plate concentration response of the positive control. Post incubation, the plates were washed 5× times with Dulbecco's phosphate buffered saline (DPBS), followed by the addition of the HRP substrate, luminol (50 μL), and measuring the HRP activity using luminescence readout on EnVision® Multilabel Plate Reader (Perkin Elmer; product number 2104-0010). The raw counts from the experiment were analyzed using Accelrys® Assay Explorer v3.3.
Z′ greater than 0.5 was used as passing quality control criteria for the plates. The Z′ is defined as:
1−[3*SDPositive Control+3*SDNegative Control/Absolute(MeanPositive Control−MeanNegative Control)]
The % activity measured at each of the 8 test concentrations of the test compound added either without or with a co-corrector (2 μM or 3 μM (GI-1 to GIII-36) of 3-[(2R,4R)-4-({[1-(2,2-difluoro-1,3-benzodioxol-5-yl)cyclopropyl]carbonyl}amino)-7-methoxy-3,4-dihydro-2H-chromen-2-yl]benzoic acid) was normalized to the on-plate positive control using the following formulae:
% activity (Test compound without co-corrector)=[(test compound without co-corrector response−DMSO response)/(positive control response−DMSO response)]*100
% activity (Test compound with co-corrector)=[(test compound with co-corrector response−DMSO response)/(positive control response−DMSO response)]*100
The maximum % activity achieved for the test compound either without or with a co-corrector at any tested concentration is presented in Table 3 along with the respective EC50's calculated using the following general sigmoidal curve with variable Hill slope equation (described as Model 42 in the Accelrys® Assay Explorer v3.3 software):
General sigmoidal curve with concentration, response, top, bottom, EC50 and Hill slope. This model describes a sigmoidal curve with an adjustable baseline, a. The equation can be used to fit curves where response is either increasing or decreasing with respect to the independent variable, “x”.

The next assay deals with T2, F508del/F508del CFTR (Homo sapiens, UniProt P13569, DEL508-508).
T2 construct: cells isolated from CF patients with the homozygous mutation; endogenous in cells; host or cells: primary human bronchial epithelial (hBE) cells from CF patients homozygous for F508del
Briefly: Trans-Epithelial Current Clamp (TECC) assay using primary human bronchial epithelial cells. The note with it: for Emax (% Dual): maximum percent activity relative to positive control (co-corrector 0.15 μM + potentiator 0.45 μM = 100%); for EC50: primary hBE cells F508del/F508del, test corrector with co-corrector and potentiator, 18-24 hours, equivalent CFTR current. In kind it is cell-based. The text has this: A cell-based assay was developed using the primary human bronchial epithelial cells (hBE cells) with F508del/F508del CFTR and other mutations.
Primary human bronchial epithelial (hBE) cells from CFTR patients with homozygous F508del/F508del mutation were expanded from 1×10^6 to 250×10^6 cells (Neuberger, T et al., 2011, Methods Mol Biol 741:39-54). For this purpose, cells isolated from CF patients with the homozygous mutation, procured from the CF center tissue procurement and cell culture core at the Marsico Lung Institute at UNC (Randell), the Cystic Fibrosis translational research center at McGill University (University), and Rosalind Franklin University Medical School (RFUMS) were seeded onto 24 well Corning (Cat #3378) filter plates that were coated with 3T3 conditioned media and grown at an air-liquid interface for 35 days using an Ultroser® G supplemented differentiation media. All the primary human bronchial epithelial cells were collected in accordance with institutional review board approval protocols. Apical surface mucus was removed 72 hours before the experiment by incubating the apical surface of the cells for 30 minutes with 3 mM dithiothreitol (DTT) prepared in Dulbecco's phosphate buffered saline (DPBS) with Ca^2+ and Mg^2+. This was followed with aspiration of the mucus from the apical surface along with DPBS. The apical surface was re-washed with phosphate buffered saline (PBS) incubated for 30 minutes followed with aspiration. These hBE cells were then incubated with the desired concentrations of the test C2 corrector compounds along with co-corrector, 4-[(2R,4R)-4-({[1-(2,2-difluoro-1,3-benzodioxol-5-yl)cyclopropyl]carbonyl}amino)-7-(difluoromethoxy)-3,4-dihydro-2H-chromen-2-yl]benzoic acid and potentiator, (5-{3-amino-5-[4-(trifluoromethoxy)benzene-1-sulfonyl]pyridin-2-yl}-1,3,4-oxadiazol-2-yl)methanol, for 18-24 hours at 37° C., 5% CO2. The desired concentrations of the correctors and potentiator compounds were prepared from the 10 mM stocks in differentiation media and were always applied on the basolateral side of the epithelial cells. We also used an assay format where a fixed concentration of potentiator was added chronically along with the corrector compounds. This chronic treatment with the potentiator helped eliminate any interaction that might happen with CFTR modulators (correctors and potentiators) and thereby determined the true efficacy of the modulator combinations reflective of clinical relevance.
The assay uses a Transepithelial Current Clamp (TECC) (Vu, C B et al., 2017; J Med Chem 60:458-473) instrument that can measure the functionality of the mutated channel by measuring the equivalent CFTR current (IEQ) generated by the polarized primary epithelial cells. We used a TECC-24 with a 24-channel electrode manifold allowing for the simultaneous measurement of the transepithelial voltage, VT, and transepithelial resistance, RT, under current clamp conditions, from 24 filters using a 24 well Costar filter plate. The design of the filters in the 24 well filter plates was exactly the same as the design of an individual Transwell filter used in the classical Ussing Chamber with a surface area of 0.33 cm^2. Each measured VT values were corrected for the electrode offset potential measured using buffer alone in a separate plate, and each measured RT values were then corrected for the combined solution series and empty filter resistances. The corrected VT and RT values were then used to calculate the equivalent current, IEQ using Ohm's law (IEQ=VT/RT). The area under the curve (AUC) for the time period between the forskolin peak IEQ response and at the time of bumetanide addition was also calculated using a one-third trapezoid method, in addition to calculating the IEQ. The assay was run in a 24-well format and all 24-wells were measured at the same time point giving a higher throughput for this assay. […]

The mark [1] stands for this setting: with co-corrector 2 μM, read-out: EC50 (with co-corrector).
Setting [2] is: without co-corrector, read-out: EC50 (without co-corrector).

T1 sequence (P13569 with tags, fused parts or gaps DEL508-508): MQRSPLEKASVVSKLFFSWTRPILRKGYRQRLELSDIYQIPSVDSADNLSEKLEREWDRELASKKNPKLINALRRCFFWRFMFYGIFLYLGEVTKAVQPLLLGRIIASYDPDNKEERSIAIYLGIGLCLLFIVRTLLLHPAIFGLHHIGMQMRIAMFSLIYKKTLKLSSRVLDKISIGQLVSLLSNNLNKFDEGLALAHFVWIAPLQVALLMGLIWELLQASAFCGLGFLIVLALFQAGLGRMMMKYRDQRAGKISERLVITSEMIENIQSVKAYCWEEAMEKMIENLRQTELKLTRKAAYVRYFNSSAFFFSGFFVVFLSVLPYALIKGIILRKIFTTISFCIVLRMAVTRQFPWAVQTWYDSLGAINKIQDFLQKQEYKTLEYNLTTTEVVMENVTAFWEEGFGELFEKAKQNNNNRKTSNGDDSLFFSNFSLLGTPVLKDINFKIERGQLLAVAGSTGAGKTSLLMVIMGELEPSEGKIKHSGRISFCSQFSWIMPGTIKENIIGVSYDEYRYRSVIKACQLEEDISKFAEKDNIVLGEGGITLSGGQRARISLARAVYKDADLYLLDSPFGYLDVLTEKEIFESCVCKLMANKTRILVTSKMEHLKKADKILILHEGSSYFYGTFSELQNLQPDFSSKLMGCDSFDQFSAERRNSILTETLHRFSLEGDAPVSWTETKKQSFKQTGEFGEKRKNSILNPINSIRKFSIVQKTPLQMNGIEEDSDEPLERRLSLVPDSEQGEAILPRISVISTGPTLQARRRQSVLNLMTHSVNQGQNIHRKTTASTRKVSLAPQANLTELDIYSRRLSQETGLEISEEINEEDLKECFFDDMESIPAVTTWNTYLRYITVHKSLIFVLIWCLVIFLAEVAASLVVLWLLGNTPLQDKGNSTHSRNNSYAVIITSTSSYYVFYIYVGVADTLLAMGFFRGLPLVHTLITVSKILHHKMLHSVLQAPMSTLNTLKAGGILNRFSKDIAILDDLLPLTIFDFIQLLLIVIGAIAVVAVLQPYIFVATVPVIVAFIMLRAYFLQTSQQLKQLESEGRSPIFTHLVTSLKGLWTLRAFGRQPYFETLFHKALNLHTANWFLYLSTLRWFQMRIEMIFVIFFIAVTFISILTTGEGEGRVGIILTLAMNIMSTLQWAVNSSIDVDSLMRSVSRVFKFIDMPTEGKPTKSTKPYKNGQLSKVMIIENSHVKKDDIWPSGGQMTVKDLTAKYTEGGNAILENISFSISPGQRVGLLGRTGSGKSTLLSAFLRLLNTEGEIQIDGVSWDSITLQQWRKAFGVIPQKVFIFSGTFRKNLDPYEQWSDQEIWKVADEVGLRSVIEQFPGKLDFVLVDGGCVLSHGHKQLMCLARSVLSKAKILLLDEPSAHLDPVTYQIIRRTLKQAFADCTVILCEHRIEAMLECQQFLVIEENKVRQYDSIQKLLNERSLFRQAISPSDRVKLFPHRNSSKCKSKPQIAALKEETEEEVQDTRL
T2 sequence (P13569 with tags, fused parts or gaps DEL508-508): as above

For orientation: EC50 means the concentration giving half of the maximal effect. In the case of `COc1ccc(C)cc1[C@@]1(C(=O)NS(=O)(=O)c2cccc3nc(C)ccc23)CC[C@@H](c2ccccc2)O1` [Example 8, (2R,5S)-2-(2-methoxy-5-methylphenyl)-N-(2-methylquinoline-5-sulfonyl)-5-phenyloxolane-2-carboxamide], the concentration for a half-maximal effect (EC50) on F508delCFTR (setting [1]) was found to be 440 nM; at F508delCFTR (setting [2]) it was 590 nM; at F508del/F508del CFTR, 3.2 nM. Further, on F508delCFTR (without co-corrector), the Emax was found to be 702%. The “Emax (% Dual)” value at F508del/F508del CFTR was determined as 339 % Dual.
For `CCOc1ccc(CC)cc1[C@@]1(C(=O)NS(=O)(=O)c2cccc3nc(C)ccc23)CCCO1` [Example 9, (2R)-2-(2-ethoxy-5-ethylphenyl)-N-(2-methylquinoline-5-sulfonyl)oxolane-2-carboxamide], the EC50 on F508delCFTR (setting [1]) came to 840 nM; at F508delCFTR (setting [2]) it was 1650 nM; at F508del/F508del CFTR, 33.7 nM. In addition, on F508delCFTR (without co-corrector), the Emax stood at 865%. The “Emax (% Dual)” value at F508del/F508del CFTR came to 256 % Dual.
On to `CCOc1ccc(CC)cc1[C@]1(C(=O)NS(=O)(=O)c2cccc3nc(C)ccc23)CCCO1` [Example 10, (2S)-2-(2-ethoxy-5-ethylphenyl)-N-(2-methylquinoline-5-sulfonyl)oxolane-2-carboxamide], for which the figures for the 50% effective concentration (EC50) at F508delCFTR (setting [1]), on F508delCFTR (setting [2]) and at F508del/F508del CFTR were 2700 nM, 3930 nM and above 300 nM, respectively. In addition, on F508delCFTR (with co-corrector 2 μM), the “Maximum % activity (with co-corrector)” value is recorded as 711%. Moreover, the Emax at F508delCFTR (without co-corrector) turned out to be 303%. On F508del/F508del CFTR, the “Emax (% Dual)” value turned out to be 129 % Dual.
Turning to `COc1ccc(C)cc1[C@]1(C(=O)NS(=O)(=O)c2cccc3nc(C)ccc23)CC[C@H](c2ccccc2)O1` [Example 11, (2S,5R)-2-(2-methoxy-5-methylphenyl)-N-(2-methylquinoline-5-sulfonyl)-5-phenyloxolane-2-carboxamide], the concentration for a half-maximal effect (EC50) is 1190 nM at F508delCFTR (setting [1]), 1110 nM at F508delCFTR (setting [2]) and 17.1 nM on F508del/F508del CFTR. Further, at F508delCFTR (without co-corrector), the Emax worked out at 542%. Besides, at F508del/F508del CFTR, the “Emax (% Dual)” value was 158 % Dual.
For `COc1ccc(C)cc1[C@@]1(C(=O)NS(=O)(=O)c2cccc3nc(C)ccc23)CC[C@H](c2ccccc2)O1` [Example 12, (2R,5R)-2-(2-methoxy-5-methylphenyl)-N-(2-methylquinoline-5-sulfonyl)-5-phenyloxolane-2-carboxamide] the same measures were 680 nM, 700 nM, 68 nM, 735% and 315 % Dual.
For the compound `CCc1ccc(OC[C@H](C)OC)c([C@]2(C(=O)NS(=O)(=O)c3cccc4nc(C)ccc34)CCCO2)c1` [Example 13, (2S)-2-{5-ethyl-2-[(2S)-2-methoxypropoxy]phenyl}-N-(2-methylquinoline-5-sulfonyl)oxolane-2-carboxamide], the results for the EC50 on F508delCFTR (setting [1]), at F508delCFTR (setting [2]) and at F508del/F508del CFTR were 4990 nM, 6490 nM and above 300 nM, respectively. Besides, the “Maximum % activity (with co-corrector)” value on F508delCFTR (with co-corrector 2 μM) is given as 399%. For the same compound, the Emax at F508delCFTR (without co-corrector) is 122%. In addition, the “Emax (% Dual)” value on F508del/F508del CFTR is listed as 119 % Dual.
On to `COc1ccc(C)cc1[C@@]1(C(=O)NS(=O)(=O)c2cccc3nc(C)ccc23)CC2(CC2)CO1` [Example 15, (6R)-6-(2-methoxy-5-methylphenyl)-N-(2-methylquinoline-5-sulfonyl)-5-oxaspiro[2.4]heptane-6-carboxamide], for which the figures for the concentration for a half-maximal effect (EC50) on F508delCFTR (setting [1]), on F508delCFTR (setting [2]) and at F508del/F508del CFTR were 1010 nM, 1510 nM and 123 nM, respectively. The “Maximum % activity (with co-corrector)” value on F508delCFTR (with co-corrector 2 μM) stood at 708%. Also, on F508delCFTR (without co-corrector), the Emax stood at 307%. In addition, on F508del/F508del CFTR, the “Emax (% Dual)” value is 178 % Dual.
In the case of `COc1ccc(C)cc1[C@]1(C(=O)NS(=O)(=O)c2cccc3nc(C)ccc23)CC2(CC2)CO1` [Example 16, (6S)-6-(2-methoxy-5-methylphenyl)-N-(2-methylquinoline-5-sulfonyl)-5-oxaspiro[2.4]heptane-6-carboxamide], the figures for the EC50 on F508delCFTR (setting [1]), on F508delCFTR (setting [2]) and on F508del/F508del CFTR were 2550 nM, 4800 nM and above 300 nM, respectively. Also, the “Maximum % activity (with co-corrector)” value at F508delCFTR (with co-corrector 2 μM) amounted to 444%. In addition, on F508delCFTR (without co-corrector), the Emax was 147%. For the same compound, the “Emax (% Dual)” value on F508del/F508del CFTR turned out to be 110 % Dual.
As for `CCc1ccc(Oc2ccccc2)c(C2(C(=O)NS(=O)(=O)c3cccc4nc(C)ccc34)CCCO2)c1` (stereo not shown) [Example 17, 2-(5-ethyl-2-phenoxyphenyl)-N-(2-methylquinoline-5-sulfonyl)oxolane-2-carboxamide], the EC50 was 1560 nM at F508delCFTR (setting [1]), 2660 nM at F508delCFTR (setting [2]) and 11.5 nM at F508del/F508del CFTR. The Emax on F508delCFTR (without co-corrector) amounted to 931%. Moreover, the “Emax (% Dual)” value at F508del/F508del CFTR is listed as 229 % Dual.
